Test results taken from PMC12969314 (European journal of medicinal chemistry, 2022).

Legend:
[1] = Human liver microsomal intrinsic clearance; format: in vitro ADME; details: for CLint scaled / Predicted hepatic clearance hCLHEP: human; for CLint scaled: liver microsomes, Intrinsic clearance hCLINT; for Predicted hepatic clearance hCLHEP: well-stirred organ CL model, binding terms excluded
[2] = Mouse liver microsomal intrinsic clearance; format: in vitro ADME; details: for CLint scaled: liver microsomes; for Predicted hepatic clearance mCLHEP: well-stirred organ CL model, binding terms excluded
D4 receptor = target: T1, D4 receptor (Homo sapiens, UniProt P21917); format: binding; details: for selectivity against the dopamine receptor family: σ1 over D1-5
T1 sequence (P21917 1-419): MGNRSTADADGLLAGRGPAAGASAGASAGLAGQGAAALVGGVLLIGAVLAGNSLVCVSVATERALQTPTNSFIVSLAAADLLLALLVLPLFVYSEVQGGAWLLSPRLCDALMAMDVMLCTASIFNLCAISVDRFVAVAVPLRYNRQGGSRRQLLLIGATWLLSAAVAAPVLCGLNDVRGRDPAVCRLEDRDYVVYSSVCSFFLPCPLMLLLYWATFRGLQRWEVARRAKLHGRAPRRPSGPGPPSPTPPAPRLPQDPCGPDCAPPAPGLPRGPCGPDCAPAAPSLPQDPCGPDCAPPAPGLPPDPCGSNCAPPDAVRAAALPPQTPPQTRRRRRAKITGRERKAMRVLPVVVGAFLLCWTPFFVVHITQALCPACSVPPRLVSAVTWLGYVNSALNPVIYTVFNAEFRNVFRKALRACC

[3] = Mouse plasma protein binding, equilibrium dialysis; format: in vitro ADME
DAT = DAT (Homo sapiens, UniProt Q01959); test: PDSP panel binding, DAT; details: for selectivity versus DAT: σ1 over DAT
DAT, sequence (Q01959 whole entry, species assumed): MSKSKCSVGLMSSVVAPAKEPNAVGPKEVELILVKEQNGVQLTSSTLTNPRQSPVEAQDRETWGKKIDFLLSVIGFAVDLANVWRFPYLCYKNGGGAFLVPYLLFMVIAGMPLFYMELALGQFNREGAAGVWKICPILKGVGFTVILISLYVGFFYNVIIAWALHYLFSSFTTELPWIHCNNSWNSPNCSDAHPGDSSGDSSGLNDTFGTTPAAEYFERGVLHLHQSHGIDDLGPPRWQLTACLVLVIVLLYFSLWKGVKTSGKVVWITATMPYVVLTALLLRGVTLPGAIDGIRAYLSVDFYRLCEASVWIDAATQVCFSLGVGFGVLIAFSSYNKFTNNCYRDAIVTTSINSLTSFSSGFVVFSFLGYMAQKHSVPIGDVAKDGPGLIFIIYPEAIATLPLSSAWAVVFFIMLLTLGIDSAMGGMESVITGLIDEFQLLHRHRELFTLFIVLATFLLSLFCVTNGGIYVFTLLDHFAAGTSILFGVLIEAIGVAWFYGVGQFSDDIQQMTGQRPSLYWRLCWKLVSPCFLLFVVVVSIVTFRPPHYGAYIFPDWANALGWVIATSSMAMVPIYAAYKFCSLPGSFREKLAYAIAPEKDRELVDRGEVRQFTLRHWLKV

σ2 receptor = σ2 receptor (Homo sapiens, UniProt Q5BJF2); test: σ2 receptor radioligand binding, [3H]DTG, HEK293 membranes; details: ratio, σ1 over σ2
σ2 receptor, sequence (Q5BJF2 whole entry, species assumed): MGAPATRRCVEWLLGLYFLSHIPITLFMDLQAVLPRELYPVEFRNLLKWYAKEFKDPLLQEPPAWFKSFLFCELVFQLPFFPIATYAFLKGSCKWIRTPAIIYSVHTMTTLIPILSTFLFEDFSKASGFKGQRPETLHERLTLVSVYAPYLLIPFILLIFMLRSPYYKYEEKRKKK

| Compound | CLint scaled ([1]; human liver microsomes) | Predicted hepatic clearance hCLHEP [1] | CLint scaled [2] | Predicted hepatic clearance mCLHEP [2] | also measured |
| --- | --- | --- | --- | --- | --- |
| Cn1cnc2cc(CN3CCC(OCc4ccc(Cl)c(F)c4)CC3)ccc21 [Compound 11b, 5-((4-((4-chloro-3-fluorobenzyl)oxy)piperidin-1-yl)methyl)-1-methyl-1H-benzo[d]imidazole] | < 20 mL/min/kg | <10 mL/min/kg | < 20 mL/min/kg | <16 mL/min/kg |  |
| Cc1nc(CN2CCC(OCc3ccc(Cl)c(F)c3)CC2)c2ccccn12 [Compound 16b, 1-((4-((4-chloro-3-fluorobenzyl)oxy)piperidin-1-yl)methyl)-3-methylimidazo[1,5-a]pyridine] | 130 mL/min/kg | 17.4 mL/min/kg | 199 mL/min/kg | 62.0 mL/min/kg |  |
| Cc1ccccc1CO[C@H]1CCCN(Cc2ccc3c(cnn3C)c2)C1 [Compound 13g, (S)-1-methyl-5-((3-((2-methylbenzyl)oxy)piperidin-1-yl)methyl)-1H-indazole] | 334 mL/min/kg | 19.0 mL/min/kg | 545 mL/min/kg | 77.3 mL/min/kg |  |
| Cn1ncc2cc(CN3CCC(OCc4ccc(Cl)c(F)c4)CC3)ccc21 [Compound 13b, 5-((4-((4-chloro-3-fluorobenzyl)oxy)piperidin-1-yl)methyl)-1-methyl-1H-indazole] |  | 13.7 mL/min/kg |  | 43.8 mL/min/kg |  |
| Fc1cc(COC2CCN(Cc3ccc4[nH]ncc4c3)CC2)ccc1Cl [Compound 12b, 5-((4-((4-chloro-3-fluorobenzyl)oxy)piperidin-1-yl)methyl)-1H-indazole] | < 30 mL/min/kg | 11.5 mL/min/kg | 72 mL/min/kg | 40.0 mL/min/kg | Intrinsic clearance hCLINT ([1]; human liver microsomes): 26.8 mL/min/kg |
| Cc1c(Cl)cccc1NC(=O)CN1CCC2(CCCN2Cc2ccc(F)c(F)c2)CC1 [Compound 24a, N-(3-chloro-2-methylphenyl)-2-(1-(3,4-difluorobenzyl)-1,8-diazaspiro[4.5]decan-8-yl)acetamide] |  |  |  |  | Ki (D4 receptor): > 10 µM |
| Fc1ccc(COC2CCN(Cc3cn4ccccc4n3)CC2)cc1F [Compound 17a, 2-((4-((3,4-difluorobenzyl)oxy)piperidin-1-yl)methyl)imidazo[1,2-a]pyridine] |  | <10 mL/min/kg |  | 57.4 mL/min/kg |  |
| c1ccc(OC[C@@H]2CN(Cc3ccc4[nH]ccc4c3)CCO2)cc1 [Compound 4] |  |  |  |  | selectivity for D4 versus σ1 (D4 receptor; D4 over σ1): ~ 13 fold |
| Fc1cc(COC2CCN(Cc3cn4ccccc4n3)CC2)ccc1Cl [Compound 17b, 2-((4-((4-chloro-3-fluorobenzyl)oxy)piperidin-1-yl)methyl)imidazo[1,2-a]pyridine] |  | 13.8 mL/min/kg |  | 46.7 mL/min/kg |  |
| c1cncc(COC2CCN(Cc3cn4ccccc4n3)CC2)c1 [Compound 17e, 2-((4-(pyridin-3-ylmethoxy)piperidin-1-yl)methyl)imidazo [1,2-a]pyridine] |  |  |  |  | Ki (D4 receptor): 2.29 µM |
| Cc1cc(NC(=O)CN2CCC3(CCCN3Cc3ccc(F)c(F)c3)C2)ccc1F (stereo not drawn) [Compound 24e, 2-(1-(3,4-difluorobenzyl)-1,7-diazaspiro[4.4]nonan-7-yl)-N-(4-fluoro-3-methylphenyl)acetamide] |  |  |  |  | Ki (D4 receptor): > 10 µM |
| Cn1ncc2cc(CN3CCC(OCc4cccc(C(F)(F)F)c4)CC3)ccc21 [Compound 13c, 1-Methyl-5-((4-((3-(trifluoromethyl)benzyl)oxy)piperidin-1-yl)methyl)-1H-indazole] |  | 15.3 mL/min/kg |  | 43.8 mL/min/kg |  |
| Fc1ccc(CN2CCCC3(CCN(Cc4cc5ccc(Cl)cc5[nH]4)C3)C2)cc1F (stereo not drawn) [Compound 25c, 2-((6-chloro-1H-indol-2-yl)methyl)-7-(3,4-difluorobenzyl)-2,7-diazaspiro[4.5]decane] |  |  |  |  | Ki (D4 receptor): > 10 µM |
| Cn1ncc2cc(CN3CCC(OCc4ccc(F)c(F)c4)CC3)ccc21 [Compound 13a, 5-((4-((3,4-difluorobenzyl)oxy)piperidin-1-yl)methyl)-1-methyl-1H-indazole] |  | 12.5 mL/min/kg |  | 48.2 mL/min/kg |  |
| Fc1ccc(COC2CCN(Cc3cc4ccc(Cl)cc4[nH]3)CC2)cc1F [Compound 14a, 6-chloro-2-((4-((3,4-difluorobenzyl)oxy)piperidin-1-yl)methyl)-1H-indole] | < 30 mL/min/kg | 10.8 mL/min/kg |  | 43.3 mL/min/kg |  |

The next lines start with results.

| CLint scaled ([1]; human liver microsomes) | Predicted hepatic clearance hCLHEP [1] | CLint scaled [2] | Predicted hepatic clearance mCLHEP [2] | Compound | also measured |
| --- | --- | --- | --- | --- | --- |
| 964 mL/min/kg | 19.7 mL/min/kg | > 2400 mL/min/kg | 86.8 mL/min/kg | COc1ccc(CN2CCC[C@H](OCc3ccc(F)c(C)c3)C2)cc1F [Compound 19a, (S)-3-((4-fluoro-3-methylbenzyl)oxy)-1-(3-fluoro-4-methoxybenzyl)piperidine] |  |
|  | 17.6 mL/min/kg |  | 68.6 mL/min/kg | Cc1c(Cl)cccc1NC(=O)CN1CCC(OCc2ccc(F)c(F)c2)CC1 [Compound 18a, N-(3-chloro-2-methylphenyl)-2-(4-((3,4-difluorobenzyl)oxy)piperidin-1-yl)acetamide] |  |
| 602 mL/min/kg | 19.5 mL/min/kg | 855 mL/min/kg | 81.5 mL/min/kg | Cc1cc(NC(=O)CN2CCC3(CCCN(Cc4ccc(F)c(F)c4)C3)C2)ccc1F (stereo not drawn) [Compound 24f, 2-(7-(3,4-difluorobenzyl)-2,7-diazaspiro[4.5]decan-2-yl)-N-(4-fluoro-3-methylphenyl)acetamide] | Ki (D4 receptor): > 10 µM; Stability in mouse plasma (mPPB column) [3]: c |
| 842 mL/min/kg | 19.6 mL/min/kg | 485 mL/min/kg | 76.0 mL/min/kg | Cc1ccc(CO[C@H]2CCCN(Cc3ccc(C#N)cc3)C2)cc1 [Compound 19f, (S)-4-((3-((4-methylbenzyl)oxy)piperidin-1-yl)methyl) benzonitrile] | selectivity against the dopamine receptor family (D4 receptor): > 74 fold; selectivity versus DAT (DAT): 300 |
| 69.3 mL/min/kg | 15.6 mL/min/kg | 150 mL/min/kg | 56.3 mL/min/kg | FC(F)(F)c1cccc(COC2CCN(Cc3cn4ccccc4n3)CC2)c1 [Compound 17c, 2-((4-((3-(trifluoromethyl)benzyl)oxy)piperidin-1-yl)methyl)imidazo[1,2-a]pyridine] |  |
| 42.1 mL/min/kg | 13.6 mL/min/kg | 321 mL/min/kg | 70.3 mL/min/kg | Fc1ccc(OC[C@@H]2CN(Cc3cn4ccccc4n3)CCO2)cc1F [Compound 17k, (S)-2-((3,4-difluorophenoxy)methyl)-4-(imidazo[1,2-a]pyridin-2-ylmethyl)morpholine] |  |
| 1400 mL/min/kg | 19.8 mL/min/kg | > 2400 mL/min/kg | 86.8 mL/min/kg | Cc1ccc(CO[C@H]2CCCN(Cc3cccc(F)c3)C2)cc1 [Compound 19g, (S)-1-(3-fluorobenzyl)-3-((4-methylbenzyl)oxy)piperidine] | Ki (D4 receptor): > 10 µM; selectivity against the dopamine receptor family (D4 receptor): > 74 fold; Ki (DAT): 8.81 µM; selectivity versus DAT (DAT): 473; selectivity σ1:σ2 (σ2 receptor): 31 |
| 1130 mL/min/kg | 19.7 mL/min/kg | 1190 mL/min/kg | 83.7 mL/min/kg | COc1ccc(CN2CCC[C@H](OCc3ccc(C)cc3)C2)cc1F [Compound 19e, (S)-1-(3-fluoro-4-methoxybenzyl)-3-((4-methylbenzyl)oxy)piperidine] |  |
|  | 14.3 mL/min/kg |  | 69.6 mL/min/kg | Cc1cc(NC(=O)CN2CCC(OCc3ccc(F)c(F)c3)CC2)ccc1F [Compound 18d, 2-(4-((3,4-difluorobenzyl)oxy)piperidin-1-yl)-N-(4-fluoro-3-methylphenyl)acetamide] | Stability in mouse plasma (mPPB column) [3]: c; selectivity σ1:σ2 (σ2 receptor): ~ 1.4 |
